In paper PMC5538626, “Structural and functional analysis of the GABARAP interaction motif (GIM)” (EMBO Reports, 2017):
Marks after values point to notes of the source that are not given here. Ends that are not written are not given here.

Columns and labels:
[1] = molecular target: T1, GABARAP (Homo sapiens, UniProt O95166); assay: ITC titration of PLEKHM1-LIR peptides into GABARAP; assay type: binding; conditions: for ΔH: VP-ITC, one-site model, 0.4 mM peptide into 0.020 mM protein, 50 mM Na2HPO4, 100 mM NaCl
T1 construct: modified Ub-leader (ubiquitin fusion leader) (N); made in house; host or cells: E. coli NEB T7 Express
Description: (§1) The genes for the truncated LC3A^2–121, LC3C^8–125, GABARAP^2–117 and GABARAP‐L1^2–117 proteins were cloned into pET30ΔSE vector between the BamHI and XhoI sites using previously established protocols 38. The chimeric constructs of the PLEKHM1‐LIR attached to the LC3A, GABARAP and GABARAP‐L1 proteins were prepared by inserting the oligonucleotide sequence corresponding to the PLEKHM1‐LIR peptide (P^629[…]^638) and glycine–serine linker into the BamHI site of the pET30ΔSE vector, placing the PLEKHM1‐LIR at the N‐terminal of the mature chimeric protein (similar to 31, 38). For the expression of human LC3 and GABARAP proteins for ITC and NMR experiments, plasmids with appropriate modified Ub‐leaders in pET vectors were used 39. Gene, encoding PLEKHM1‐LIR peptide, was ordered as synthetic oligonucleotides (Eurofins Genomics GmbH) and cloned into the pET39_Ub63_ vector 39 by NcoI–BamHI restriction sites. After TEV cleavage, the resulting peptide has the amino acid sequence GAMG‐P^629[…]^642, where the first four residues (GAMG) are the cloning artefact.
(§2) The chimeric constructs were expressed as a His‐tag fusion protein in E. coli BL21(DE3) cells. The cells were induced with 0.3 mM IPTG at OD600 0.6 for 16 h at 26°C. The cell pellets were lysed using mechanical sonication in lysis buffer (20 mM Tris–HCl pH 9.0, 100 mM NaCl, 10 mM imidazole, supplemented with 0.1% Triton X‐100). The proteins were purified using Ni‐NTA beads (GE Healthcare) and the His‐tag was cleaved using thrombin (Invitrogen) at room temperature for 16 h. The last step was gel filtration chromatography using a Superdex S200/300 GL column (GE Healthcare). The proteins were concentrated using spin concentrators (Vivaspin). For ITC and NMR studies, the non‐labelled and stable isotopes labelled LC3 and GABARAP proteins were obtained based on the protocols described elsewhere 30, 39. Here, E. coli NEB T7 Express culture transformed with corresponding plasmids were grown till OD600 nm = 1.0 and protein expression was induced with 0.2 mM IPTG. The cultures were incubated at 25°C for 8–12 h before cell harvesting. Isolation and purification procedures were similar to those reported in Ref. 22, 40. Before experiments, all proteins and peptides were equilibrated with a buffer containing 50 mM Na2HPO4, 100 mM NaCl at pH 7.0, and supplied with 5 mM protease inhibitor cocktail.
(§3) The protocol for preparation of non‐labelled and ^13C,^15N‐labelled PLEKHM1‐LIR peptide was slightly modified to achieve highest yield of the peptide. The 50 ml M9 culture was inoculated with NEB T7 cell transformed with pET39_Ub63‐PLEKHM1‐LIR plasmid and grown overnight at 37°. The collected cells were resuspended in 2 l of either LB or M9 media contained 1.5 g ^15N‐labelled NH4Cl and 3.0 g of ^13C‐labelled glucose. The cultures were grown at 37° till A(600 nm) = 0.9 and supplied with 1 mM of IPTG to induce Ub63‐PLEKHM1‐LIR overexpression (3 h at 37°). After that cells were harvested by centrifugation, re‐suspended in buffer contained 50 mM Tris–HCl pH = 7.9, 200 mM NaCl, 5% glycerol, 0.1 mg/ml DNase A and 4 mM protease inhibitor cocktail. After cell lysis by French press, debris was removed by centrifugation and clear supernatant was applied onto the column contained Ni‐NTA Sepharose equilibrated with the loading buffer (50 mM Tris–HCl pH = 7.9, 250 mM NaCl, 1% glycerol and 20 mM imidazole). Elution was performed with 400 mM imidazole in the same buffer. An aliquot of pure Ub63‐PLEKHM1‐LIR fractions was further purified by gel filtration on Superdex75 26 × 60 column for control ITC and analytical size exclusion chromatography experiments, remaining fusion protein was processed with the TEV‐protease and PLEKHM1‐LIR peptide was purified to 95% purity by reverse Ni‐NTA chromatography and followed gel filtration on Superdex75 26 × 60 column. Peak maximum of peptide was detected at […] (void volume 115 ml). Pure peptide was concentrated in Amicon concentrators with cut‐off of 3 kDa (> 95% retention). […]

[2] = molecular target: T2, LC3B (Homo sapiens, UniProt Q9GZQ8); assay: ITC titration of PLEKHM1-LIR peptides into LC3B; assay type: binding; conditions: for ΔH: VP-ITC, 50 mM Na2HPO4, 100 mM NaCl
T2 construct: modified Ub-leader (ubiquitin fusion leader) (N); made in house; host or cells: E. coli NEB T7 Express
Description: as §1, §2, §3

[3] = ITC, 25°C, one-site model, 0.4 mM peptide into 0.020 mM protein, pH 7.0
[4] = weak interaction: N fixed to 1 upon fitting

T1 sequence (O95166 whole entry, the tested form may be a part): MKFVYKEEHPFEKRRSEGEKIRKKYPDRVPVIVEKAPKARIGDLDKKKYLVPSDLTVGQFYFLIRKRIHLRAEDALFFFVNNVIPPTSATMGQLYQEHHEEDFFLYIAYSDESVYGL

Sequence | ΔH ([1]; ITC, 25°C, pH 7.0) | KA ([1]; ITC, 25°C, pH 7.0) | N (number of binding sites) ([1]; ITC, 25°C, pH 7.0) | ΔG ([1]; ITC, 25°C, pH 7.0) | ΔS ([1]; ITC, 25°C, pH 7.0) | −T × ΔS ([1]; ITC, 25°C, pH 7.0) | ΔH [2, 3] | KA ([2]; ITC, 25°C, pH 7.0) | N (number of binding sites) ([2]; ITC, 25°C, pH 7.0) | ΔG ([2]; ITC, 25°C, pH 7.0) | ΔS ([2]; ITC, 25°C, pH 7.0) | −T × ΔS ([2]; ITC, 25°C, pH 7.0) | Kd ([2]; ITC, 25°C, pH 7.0, 0.4 mM peptide into 0.020 mM protein, one-site model) | N (number of binding sites) [1, 4] | N (number of binding sites) [2, 4]
GAMGPQQEDEWCILQYPD [PLEKHM1‐LIR VNV‐CIL] | -9.2 ± 0.1 kcal/mol | 11.3 ± 0.38 ×10^6 M^−1 | 1.07 ± 0.01 | -9.62 kcal/mol | +1.49 cal mol^−1 K^−1 | -0.44 kcal/mol | -7.9 ± 0.1 kcal/mol | 3.03 ± 0.27 ×10^6 M^−1 | 1.06 ± 0.01 | -8.84 kcal/mol | +3.30 cal mol^−1 K^−1 | -0.98 kcal/mol | – | – | –
EDEWCILQY [WCIL] | – | – | – | – | – | – | – | – | – | – | – | – | 300 nM | – | –
GAMGPQQEDEWGNVQYPD [PLEKHM1‐LIR V636G] | -7.5 ± 0.1 kcal/mol | 0.02 ± 0.00 ×10^6 M^−1 | – | -5.83 kcal/mol | −5.66 cal mol^−1 K^−1 | +1.69 kcal mol^−1 | -1.7 ± 0.1 kcal/mol | – | – | -5.42 kcal/mol | +12.4 cal mol^−1 K^−1 | -3.70 kcal/mol | – | 1 ^a | 1 ^a
GAMGPQQEDEWVGVQYPD [PLEKHM1‐LIR N637G] | -6.7 ± 0.1 kcal/mol | 0.13 ± 0.01 ×10^6 M^−1 | 1.17 ± 0.04 | -6.97 kcal/mol | +1.07 cal mol^−1 K^−1 | -0.32 kcal/mol | -1.4 ± 0.1 kcal/mol | 0.02 ± 0.01 ×10^6 M^−1 | – | -5.87 kcal/mol | +15.0 cal mol^−1 K^−1 | -4.47 kcal/mol | – | – | 1 ^a
GAMGPQQEDEAVNVQYPD [PLEKHM1‐LIR W635A] | -1.1 ± 0.1 kcal/mol | – | – | -5.40 kcal/mol | +14.4 cal mol^−1 K^−1 | -4.29 kcal/mol | -0.8 ± 0.1 kcal/mol | – | – | -5.44 kcal/mol | +15.4 cal mol^−1 K^−1 | -4.59 kcal/mol | – | 1 ^a | 1 ^a
